Measured values taken from patent US20260285850A1, “SUBSTITUTED OXAZOLIDINONES AND IMIDAZOLINONES AS HERBICIDES” (FMC CORPORATION, priority 2023, published 2026).

What was measured:
Type in all cases: in vivo
[1] = test system: barnyardgrass (Echinochloa crus-galli); assay: Test A preemergence soil spray, visual injury rating 0-100; details: 10 days, 0 = no effect, 100 = complete control
Summary of the method: (§1)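 Visual injury ratings (0, no effect; 100, complete control) were assigned relative to untreated plants 10 days after treatment. Test chemicals, formulated with a surfactant-containing non-phytotoxic solvent, were applied in loam-sand soil either as a directed soil spray before emergence or to emerged plants, and plants were kept in a greenhouse.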

[2] = test system: blackgrass (Alopecurus myosuroides); assay: as above; details: 10 days, 0 = no effect, 100 = complete control
Summary of the method: as §1

corn (Zea mays) [3] = assay: as above; details: 10 days, 0 = no effect, 100 = complete control
Summary of the method: as §1

[4] = test system: foxtail, giant (giant foxtail, Setaria faberi); assay: as above; details: 10 days, 0 = no effect, 100 = complete control
Summary of the method: as §1

kochia (Bassia scoparia) [5] = assay: as above; details: 10 days, 0 = no effect, 100 = complete control
Summary of the method: as §1

[6] = test system: oat, wild (wild oat, Avena fatua); assay: as above; details: 10 days, 0 = no effect, 100 = complete control
Summary of the method: as §1

[7] = test system: palmer (palmer amaranth, palmer pigweed, Amaranthus palmeri); assay: as above; details: 10 days, 0 = no effect, 100 = complete control
Summary of the method: as §1

[8] = test system: ragweed (common ragweed, Ambrosia artemisiifolia); assay: as above; details: 10 days, 0 = no effect, 100 = complete control
Summary of the method: as §1

[9] = test system: ryegrass, Italian (italian ryegrass, Lolium multiflorum); assay: as above; details: 10 days, 0 = no effect, 100 = complete control
Summary of the method: as §1

soybean (Glycine max) [10] = assay: as above; details: 10 days, 0 = no effect, 100 = complete control
Summary of the method: as §1

[11] = test system: wheat (Triticum aestivum); assay: as above; details: 10 days, 0 = no effect, 100 = complete control
Summary of the method: as §1

[12] = test system: barnyardgrass (Echinochloa crus-galli); assay: Test A postemergence application, visual injury rating 0-100; details: Postemergence, 10 days, 0 is no effect, 100 is complete control
Summary of the method: as §1

[13] = test system: blackgrass (Alopecurus myosuroides); assay: as above; details: Postemergence, 10 days, 0 is no effect, 100 is complete control
Summary of the method: as §1

corn (Zea mays) [14] = assay: as above; details: Postemergence, 10 days, 0 is no effect, 100 is complete control
Summary of the method: as §1

[15] = test system: foxtail, giant (giant foxtail, Setaria faberi); assay: as above; details: 10 days, 0 is no effect, 100 is complete control
Summary of the method: as §1

[16] = test system: galium (catchweed bedstraw, Galium aparine); assay: as above; details: Postemergence, 10 days, 0 is no effect, 100 is complete control
Summary of the method: as §1

kochia (Bassia scoparia) [17] = assay: as above; details: Postemergence, 10 days, 0 is no effect, 100 is complete control
Summary of the method: as §1

[18] = test system: oat, wild (wild oat, Avena fatua); assay: as above; details: Postemergence, 10 days, 0 is no effect, 100 is complete control
Summary of the method: as §1

[19] = test system: palmer (palmer amaranth, palmer pigweed, Amaranthus palmeri); assay: as above; details: Postemergence, 10 days, 0 is no effect, 100 is complete control
Summary of the method: as §1

[20] = test system: ragweed (common ragweed, Ambrosia artemisiifolia); assay: as above; details: Postemergence, 10 days, 0 is no effect, 100 is complete control
Summary of the method: as §1

[21] = test system: ryegrass, Italian (italian ryegrass, Lolium multiflorum); assay: as above; details: Postemergence, 10 days, 0 is no effect, 100 is complete control
Summary of the method: as §1

soybean (Glycine max) [22] = assay: as above; details: Postemergence, 10 days, 0 is no effect, 100 is complete control
Summary of the method: as §1

[23] = test system: wheat (Triticum aestivum); assay: as above; details: Postemergence, 10 days, 0 is no effect, 100 is complete control
Summary of the method: as §1

[24] = test system: barnyardgrass (Echinochloa crusgalli); assay: Test B flooded paddy test, visual plant response rating 0-100; details: 250 g ai/ha, Flood, applied to paddy water, evaluated after 13 days
Summary of the method: (§2)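 Compounds applied to standing paddy water (3 cm above soil, maintained for the test duration) on 2-leaf-stage plants; visual rating vs controls at 13 days, greenhouse.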

[25] = test system: ducksalad (Heteranthera limosa); assay: as above; details: 250 g ai/ha, Flood, applied to paddy water, evaluated after 13 days
Summary of the method: as §2

rice (Oryza sativa) = assay: as above; details: 250 g ai/ha, Flood, applied to paddy water, evaluated after 13 days
Summary of the method: as §2

[26] = test system: sedge, umbrella (small-flower umbrella sedge, Cyperus difformis); assay: as above; details: 250 g ai/ha, Flood, applied to paddy water, evaluated after 13 days
Summary of the method: as §2

CC1(C(=O)NC2C=CC(C(=O)OCCS(C)(=O)=O)C2)CN(c2cc(F)cc(F)c2)C(=O)O1 (centres unmarked) [Compound 49]
Barnyardgrass plant response rating (0 to 100 scale) ([1]; 125 g ai/ha): 90 | Barnyardgrass plant response rating (0 to 100 scale) ([1]; 500 g ai/ha): 100 | Blackgrass plant response rating (0 to 100 scale) ([2]; 125 g ai/ha): 70 | Blackgrass plant response rating (0 to 100 scale) ([2]; 500 g ai/ha): 80 | Corn plant response rating (0 to 100 scale) (corn (Zea mays) [3]; 125 g ai/ha): 80 | Corn plant response rating (0 to 100 scale) (corn (Zea mays) [3]; 500 g ai/ha): 90 | Foxtail, Giant plant response rating (0 to 100 scale) ([4]; 125 g ai/ha): 90 | Foxtail, Giant plant response rating (0 to 100 scale) ([4]; 500 g ai/ha): 100 | Kochia plant response rating (0 to 100 scale) (kochia (Bassia scoparia) [5]; 125 g ai/ha): 90 | Kochia plant response rating (0 to 100 scale) (kochia (Bassia scoparia) [5]; 500 g ai/ha): 100 | Oat, Wild plant response rating (0 to 100 scale) ([6]; 125 g ai/ha): 80 | Oat, Wild plant response rating (0 to 100 scale) ([6]; 500 g ai/ha): 90 | Amaranth, Palmer plant response rating (0 to 100 scale) ([7]; 125 g ai/ha): 90 | Amaranth, Palmer plant response rating (0 to 100 scale) ([7]; 500 g ai/ha): 100 | Ragweed plant response rating (0 to 100 scale) ([8]; 125 g ai/ha): 40 | Ragweed plant response rating (0 to 100 scale) ([8]; 500 g ai/ha): 90 | Ryegrass, Italian plant response rating (0 to 100 scale) ([9]; 125 g ai/ha): 80 | Ryegrass, Italian plant response rating (0 to 100 scale) ([9]; 500 g ai/ha): 100 | Soybean plant response rating (0 to 100 scale) (soybean (Glycine max) [10]; 125 g ai/ha): 80 | Soybean plant response rating (0 to 100 scale) (soybean (Glycine max) [10]; 500 g ai/ha): 90 | Wheat plant response rating (0 to 100 scale) ([11]; 125 g ai/ha): 90 | Wheat plant response rating (0 to 100 scale) ([11]; 500 g ai/ha): 100 | Barnyardgrass plant response rating (0 to 100 scale) ([12]; 125 g ai/ha): 100 | Barnyardgrass plant response rating (0 to 100 scale) ([12]; 500 g ai/ha): 100 | Blackgrass plant response rating (0 to 100 scale) ([13]; 125 g ai/ha): 90 | Blackgrass plant response rating (0 to 100 scale) ([13]; 500 g ai/ha): 100 | Corn plant response rating (0 to 100 scale) (corn (Zea mays) [14]; 125 g ai/ha): 100 | Corn plant response rating (0 to 100 scale) (corn (Zea mays) [14]; 500 g ai/ha): 100 | Foxtail, Giant plant response rating (0 to 100 scale) ([15]; 125 g ai/ha): 90 | Foxtail, Giant plant response rating (0 to 100 scale) ([15]; 500 g ai/ha): 90 | Galium plant response rating (0 to 100 scale) ([16]; 125 g ai/ha): 70 | Galium plant response rating (0 to 100 scale) ([16]; 500 g ai/ha): 80 | Kochia plant response rating (0 to 100 scale) (kochia (Bassia scoparia) [17]; 125 g ai/ha): 70 | Kochia plant response rating (0 to 100 scale) (kochia (Bassia scoparia) [17]; 500 g ai/ha): 80 | Oat, Wild plant response rating (0 to 100 scale) ([18]; 125 g ai/ha): 90 | Oat, Wild plant response rating (0 to 100 scale) ([18]; 500 g ai/ha): 90 | Amaranth, Palmer / Pigweed, Palmer plant response rating (0 to 100 scale) ([19]; 125 g ai/ha): 90 | Amaranth, Palmer / Pigweed, Palmer plant response rating (0 to 100 scale) ([19]; 500 g ai/ha): 100 | Ragweed plant response rating (0 to 100 scale) ([20]; 125 g ai/ha): 70 | Ragweed plant response rating (0 to 100 scale) ([20]; 500 g ai/ha): 70 | Ryegrass, Italian plant response rating (0 to 100 scale) ([21]; 125 g ai/ha): 80 | Ryegrass, Italian plant response rating (0 to 100 scale) ([21]; 500 g ai/ha): 90 | Soybean plant response rating (0 to 100 scale) (soybean (Glycine max) [22]; 125 g ai/ha): 90 | Soybean plant response rating (0 to 100 scale) (soybean (Glycine max) [22]; 500 g ai/ha): 90 | Wheat plant response rating (0 to 100 scale) ([23]; 125 g ai/ha): 90 | Wheat plant response rating (0 to 100 scale) ([23]; 500 g ai/ha): 90 | Plant response rating, Barnyardgrass (0 to 100 scale, 0 is no effect and 100 is complete control) [24]: 80 | Plant response rating, Ducksalad (0 to 100 scale, 0 is no effect and 100 is complete control) [25]: 90 | Plant response rating, Rice (0 to 100 scale, 0 is no effect and 100 is complete control) (rice (Oryza sativa)): 55 | Plant response rating, Sedge, Umbrella (0 to 100 scale, 0 is no effect and 100 is complete control) [26]: 95
